In US4711245A, “Sensor for components of a liquid mixture” (Genetics International, Inc., priority 1983, dated 1987):
Where a name gives a salt, the structure may show the parent alone. Values belong to the molecule of their own block, whether it stands above or below them.

Key:
[1] = dc cyclic voltammetry of ferrocene derivatives (redox potential); type: physicochemical; conditions: for Eo: vs a standard calomel electrode, phosphate buffer at pH 7.0
glucose oxidase [2] = target: T1, glucose oxidase (Aspergillus niger, UniProt P13006); assay: substrate kinetics of glucose oxidase (relative rate, Km); type: biochemical; conditions: substrates for glucose oxidase; β-D-glucose 100
[3] = spectrophotometric measurement (E, cm^-1 M^-1); type: physicochemical
[4] = target: T2, glucose enzyme electrode (glucose oxidase) (Aspergillus niger, UniProt P13006); assay: steady-state current response of the 1,1'-dimethylferrocene/glucose oxidase enzyme electrode (interfering substances, KM'); conditions: for interference to the electrodes response to glucose: added at normal blood concentration
T2 construct: purchased Boehringer Mannheim

glucose oxidase [5] = target: T1, glucose oxidase; conditions: non-immobilized enzyme; cited from earlier work
[6] = vs NHE; cited from earlier work
glucose oxidase [7] = target: T1, glucose oxidase; conditions: cited from earlier work
glucose oxidase [8] = target: T1, glucose oxidase; type: biochemical; conditions: pH 7

T1 sequence (P13006 23-605): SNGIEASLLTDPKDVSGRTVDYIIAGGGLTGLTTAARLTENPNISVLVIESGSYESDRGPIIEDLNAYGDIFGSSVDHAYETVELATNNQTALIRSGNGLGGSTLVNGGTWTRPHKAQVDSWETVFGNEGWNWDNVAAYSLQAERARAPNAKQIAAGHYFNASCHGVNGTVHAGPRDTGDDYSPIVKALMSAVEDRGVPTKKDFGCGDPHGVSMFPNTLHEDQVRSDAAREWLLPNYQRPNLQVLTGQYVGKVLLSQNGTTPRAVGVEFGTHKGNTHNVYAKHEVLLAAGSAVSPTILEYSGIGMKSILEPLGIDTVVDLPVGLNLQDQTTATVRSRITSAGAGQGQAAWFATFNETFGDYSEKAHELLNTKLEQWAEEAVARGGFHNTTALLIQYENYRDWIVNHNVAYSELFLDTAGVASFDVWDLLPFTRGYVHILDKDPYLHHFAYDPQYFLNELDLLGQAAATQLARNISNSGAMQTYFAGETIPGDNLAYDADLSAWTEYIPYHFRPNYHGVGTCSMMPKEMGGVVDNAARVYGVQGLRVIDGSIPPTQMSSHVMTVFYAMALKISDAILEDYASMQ
T2 sequence (P13006 23-605 limits assumed): as the sequence (P13006 23-605) above

Eo [1]: 100 mV
Molecule: 1,1'-dimethylferrocene [1,1'-dimethyl-]

Eo' ([1]; Example 4, procedure of Example 3, saturated calomel reference): +420 mV
Eo [1]: 385 mV
Molecule: 1,1'-ferrocene dicarboxylic acid [1,1'-dicarboxylic acid]

Molecule: 6-methyl-D-glucose
Relative Rate (glucose oxidase [2]): 2

Eo [1]: 224 mV
E [3]: 385 cm⁻¹ M⁻¹
Molecule: OC[c-]1cccc1.OC[c-]1cccc1.[Fe+2] [1,1'bis(hydroxymethyl)-]

Molecule: OC[C@H]1OC(O)C[C@@H](O)[C@@H]1O (stereo partly drawn) [2-deoxy-D-glucose]
Relative Rate (glucose oxidase [2]): 25

Molecule: OC[C@H]1OC(O)[C@@H](O)[C@@H](O)[C@@H]1O (stereo partly drawn) [D-mannose]
Relative Rate (glucose oxidase [2]): 1

Molecule: OC1OC[C@@H](O)[C@H](O)[C@H]1O (stereo partly drawn) [D-xylose]
interference to the electrodes response to glucose ([4]; 8 mM glucose): did not cause any observable interference

Molecule: OC[C@H]1OC(O)[C@H](O)[C@@H](O)[C@@H]1O (some centres unmarked) [Glucose]
Km (glucose oxidase [5]): 3 mM
Km ([4]; glucose oxidase immobilized on the prototype ferrocene-based electrodes, kinetically-controlled, read-out: apparent Michaelis-Menten constant KM'): 30 to 40 mM

Molecule: O=C1O[C@H]([C@@H](O)CO)C(O)=C1O [L-ascorbate]
mean increase in current ([4]; 8 mM glucose, final concentration of 0.13 mM): ca. 4.0%

Molecule: Cl.N[C@@H](CS)C(=O)O [L-cysteine HCl]
interference to the electrodes response to glucose ([4]; 8 mM glucose): did not cause any observable interference

Eo [1]: 345 mV
Molecule: Cl[c-]1cccc1.[Fe+2].c1cc[cH-]c1 [chloro-]

Eo [1]: 165 mV
E [3]: 335 cm⁻¹ M⁻¹
Molecule: [Fe+2].c1cc[cH-]c1.c1cc[cH-]c1 [ferrocene]
redox potential [6]: +422 mV

Molecule: O=O [molecular oxygen]
ks, rate of reaction of the natural electron acceptor with glucose oxidase (glucose oxidase [7]): 10^6 M^-1 S^-1

Molecule: N[C@@H](CCC(=O)N[C@@H](CS)C(=O)NCC(=O)O)C(=O)O [reduced glutathione]
interference to the electrodes response to glucose ([4]; 8 mM glucose): did not cause any observable interference

Molecule: O=CO [sodium formate]
interference to the electrodes response to glucose ([4]; 8 mM glucose): did not cause any observable interference

Molecule: OC[C@H]1O[C@H](O)[C@H](O)[C@@H](O)[C@@H]1O [α-D-glucose]
Relative Rate (glucose oxidase [2]): 0.6

Molecule: OC[C@H]1O[C@H](O)[C@H](O)[C@@H](O)[C@H]1O [α-galactose]
interference to the electrodes response to glucose ([4]; 8 mM glucose): did not cause any observable interference

Molecule: OC[C@H]1O[C@H](O)[C@@H](O)[C@@H](O)[C@@H]1O [α-mannose]
interference to the electrodes response to glucose ([4]; 8 mM glucose): did not cause any observable interference

Molecule: OC[C@H]1O[C@@H](O)[C@H](O)[C@@H](O)[C@@H]1O [β-D-glucose]
Relative Rate (glucose oxidase [2]): 100

Molecule: vinyl ferrocene [vinyl-]
Eo/mV vs SCE ([1]; pH 7): 250 mV
Rates of glucose oxidase oxidation (glucose oxidase [8]): 18
